Measured values taken from patent US5561131A, “Defaunation method” (Mallinckrodt Veterinary, Inc., priority 1991, dated 1996).

Assays:
rumen ciliate protozoa [1] = test: In vitro activity of defaunation compounds against rumen ciliate protozoa; type: cell-based; conditions: 39° C., anaerobic, 3 hours, tested at 50, 150, 250 and 500 ppm
Protocol: Compounds of Table 1 were tested for their toxicity against rumen ciliate protozoa by firstly isolating protozoa from rumen liquor collected from faunated animals. The rumen liquor was then centrifuged at 500 g for five minutes and the supernatant discarded. The protozoal-rich sediment was then reconstituted in McDougal's artificial saliva. Residual bacteria were suppressed by using a combination of two antibiotics at low concentration. Nitrogen and energy substrate was optimized for the protozoal preparation. At all times the protozoal preparation was maintained at 39° C. and kept anaerobic.
Sixty milligrams of each the compounds of Table 1 were dissolved in 1.2 ml of dimethyl sulphoxide and dispersed in triplicate to achieve a final concentration of 50, 150, 250 and 500 ppm. Ten milliliters of protozoal preparation was then added to each tube. After every second compound, control tubes were included which contained everything except for compound. The tubes, to which a 5 ml glass syringe was attached, were then incubated for 3 hours in a water bath at 39° C. The production of gas causes the syringe plunger to be displaced.
At the end of the incubation period, the volume of gas produced was recorded and the viability of the protozoa assessed visually using a microscope. The toxicity of the compounds to protozoa was assessed from both the reduction in gas produced relative to the control and by direct observation of the protozoa for movement of cilia.

rumen bacteria [2] = test: Bacterial viability in sheep after administering defaunation compounds; type: in vivo; conditions: gas production one week after dosing vs pre-dosing
Protocol: In order to establish what effect the compounds had on the viability of rumen bacteria, a sample of rumen liquor was collected prior to dosing of the compound. The sample was withdrawn under vacuum using a pre-warmed tube inserted into the rumen through a rumen cannula. The sample was collected in a pre-warmed (39° C.) flask, gassed with carbon dioxide and covered. Two-pre-warmed 30 ml centrifuge tubes were then filled with well mixed rumen liquor and centrifuged at 2000 rpm for 5 minutes. Half the volume of each tube was then poured into another pre-warmed tube without disturbing the sediment. Three lots of 10 ml of this rumen liquor were then pipetted into 15 ml tubes which contained 10 μL of urea solution (40% w/v and 300 μL of glucose solution (50% w/v). The urea and glucose acted as substrate for the bacteria. The tubes were then gassed with carbon dioxide, stoppered and placed in a water bath at 39° C. After 10 minutes a 5 ml glass syringe was secured into the stoppers (through which a hypodermic needle had been inserted) and the gas collected for five hours and recorded.
This bacterial viability measure was then repeated one week after dosing with each of the compounds referred to in Table 1. Defaunation compositions were prepared according to the method of Example 1. The amount of gas produced was then compared with the pre-dosing level. The criterion for classifying post-dosing bacterial viability is shown below:
Poor--reduction in post-dosing gas production relative to pre-dosing levels.
OK--post-dosing gas production the same as pre-dosing levels.
Good--increase in post-dosing gas production relative to pre-dosing levels.

mice = test: Mouse safety assessment; type: in vivo; conditions: oral gavage, 830, 415 and 217 mg/kg, observed for 2 days
Protocol: Compounds of Table 1 chosen for testing in sheep were first tested in mice for signs of toxicity. Because sheep are approximately 5 times more sensitive than mice to compounds dosed orally, the dose rates applied to mice were 5 times greater than the target dose rate of 500 ppm. in rumen liquor (83 mg/kg live weight) used for sheep. Each compound was screened at three different dose levels, high (830 mg/kg), medium (415 mg/kg) and low (217 mg/kg).
252 mg of compound was used for dilution into a high medium and low dose rate. 252 mg of compound was mixed with 3 ml of G1284 solution (4% w/v ethoxylated castor oil and 0.05% w/v simethicone), to form the high dose composition. The medium dose composition was formed by diluting 1.5 ml of the high dose with 1.5 ml of G1284 solution. The low dose composition was formed by diluting 1.5 ml of the medium dose with 1.5 ml of G1284 solution. Before the high dose could be diluted it was first manually ball milled in an effort to produce a fine suspension of the compound.
All mice were weighed before dosing to calculate the appropriate dose rate. The calculation for dose rate was: [formula]
Each mouse was dosed using the Gavage method. With this method the mouse is dosed orally by way of an angled hypodermic needle (18 g) with a smooth spherical end. It is gently placed down the esophagus. All care must be taken not to force the needle and injure the esophagus or dose into the lungs.
Observations were made at 10, 30, 60 and 120 minutes after dosing, then every 1 or 2 hours for the first 6 hours.
Mice were usually observed for 2 days.
Typically, few compounds fell within the poor classification. The majority of compounds tested were either in the fair or good classification.

[3] = Effect of defaunation compounds on feed intake of sheep; type: in vivo; conditions: after dosing vs pre-dosing intake
Protocol: Sheep were allowed a minimum of three weeks to adapt to their ration of 900 g of oaten chaff and 100 g of Lucerne chaff. The pre-dosing level of intake for each animal was established from the mean of five days intake immediately prior to dosing. Any effects of administering the compound on feed intake was then determined by measuring the level of feed intake after dosing.
The criteria of classifying the effect on food intake are shown below.
Poor--greater than 50% reduction in feed intake during the first week after dosing.
Fair--greater than 50% reduction in feed intake on the day following dosing but less then 50% reduction one week after dosing.
OK--transient drop in feed intake which is less than 50% on the day after dosing.
Good--No reduction in feed intake following dosing.

rumen ciliate protozoa [4] = test: Protozoal reduction in sheep; type: in vivo; design: concentration or dose not given beside the values; conditions: one week after dosing, relative to predosing numbers
Protocol: Defaunation compositions were prepared according to the method of Example 1.
Prior to dosing of the compound, a sample of rumen liquor (200 ml) was withdrawn to establish basal numbers of protozoa.
The sample was collected using a stomach tube, inserted into the rumen via a rumen cannula (fistulated animals) or per esophagus (intact animals). After straining the sample was well mixed using a magnetic stirrer and a 0.5 ml sample was withdrawn and added to 49.5 ml of a crystal violet stain. Protozoa were counted using a microscope and a Hawksley counting chamber.
One week after administering the compound, another rumen liquor sample was collected (as described above) and examined for the presence of protozoa. Where rumen ciliate protozoa were undetectable, a reduction or inhibition value of 100% was recorded. In general, most compounds expressed a strong inhibitory effect on protozoal populations.

rumen bacteria [5] = test: In vitro bacterial gas inhibition; type: cell-based; conditions: at the concentration known to kill protozoa
Protocol: Compounds of Table 1 were also tested for toxicity bacteria. This involved removing protozoa from rumen liquor by centrifugation at 2,000 g for 5 minutes and collecting the bacterial rich supernatant. Nitrogen and energy substrate was added to the bacterial preparation which was then dispensed in triplicate 10 ml volumes over the same range of compound concentrations (50, 150, 250 and 500 ppm.) referred to in Example 2. Control tubes were placed after every second compound to enable the inhibition of gas resulting from the compound to be assessed. […] It can be seen that these compounds are selective in their mode of action, in that they are more toxic to protozoa than bacteria.

| SMILES | Conc Required to Kill all Protozoa (rumen ciliate protozoa [1]) [ppm] | Bacterial Viability (rumen bacteria [2]) | Mouse Safety Assessment (mice) | Feed Intake [3] | Protozoal Reduction (rumen ciliate protozoa [4]) [%] | Bact. Gas Inhibition at the conc. required to kill protozoa (rumen bacteria [5]) |
| --- | --- | --- | --- | --- | --- | --- |
| Clc1nc(Cl)nc(Nc2ccc(I)cc2)n1 [Compound 11] | 250 | Okay | Fair (>2 mice sick) | Good | 84 | 71 |
| CSc1cccc(Nc2nc(Cl)nc(Cl)n2)c1 [Compound 15] | 150 | Good | Fair (>2 mice sick) | Good | 100 | 52 |
| COc1ccc(Nc2nc(Cl)nc(Cl)n2)cc1OC [Compound 17] | 250 | Okay | Good | Fair | 98 | 43 |
| CSc1ccc(Nc2nc(Cl)nc(Cl)n2)cc1 [Compound 18] | 150 | Okay | Fair (>2 mice sick) | Okay (transient drop, less than 50% at day 2) | 100 | 53 |
| N#Cc1cccc(Nc2nc(Cl)nc(Cl)n2)c1 [Compound 19] | 250 | Poor | Fair (>2 mice sick) | Good | 100 | 50 |
| CC(C)(C)c1ccc(Nc2nc(Cl)nc(Cl)n2)cc1 [Compound 20] | 150 | Okay | Fair (>2 mice sick) | Good | 100 | 55 |
| CC(C)c1ccc(Nc2nc(Cl)nc(Cl)n2)cc1 [Compound 21] | 150 | Good | Fair (>2 mice sick) | Good | 100 | 55 |
| Clc1nc(Cl)nc(Nc2cccc(I)c2)n1 [Compound 22] | 150 | Okay | Fair (>2 mice sick) | Good | 100 | 75 |
| COc1cccc(Nc2nc(Cl)nc(Cl)n2)c1 [Compound 23] | 150 | Good | Fair (>2 mice sick) | Good | 79 | 50 |
| Clc1nc(Cl)nc(Nc2cc(Cl)c(Cl)c(Cl)c2)n1 [Compound 24] | 150 | Okay | Good | Good | 100 | 67 |
| CN(c1ccc(Cl)c(Cl)c1)c1nc(Cl)nc(Cl)n1 [Compound 29] | 150 | Good | Fair (>2 mice sick) | Good | 98 | 41 |
